Patent US20040180927A1, “Inhibitors of cysteine protease” (SmithKline Beecham Corporation, priority 1996, published 2004)

Molecular target: T1, cathepsin K (Homo sapiens, UniProt P43235)
T1 sequence (P43235 115-329): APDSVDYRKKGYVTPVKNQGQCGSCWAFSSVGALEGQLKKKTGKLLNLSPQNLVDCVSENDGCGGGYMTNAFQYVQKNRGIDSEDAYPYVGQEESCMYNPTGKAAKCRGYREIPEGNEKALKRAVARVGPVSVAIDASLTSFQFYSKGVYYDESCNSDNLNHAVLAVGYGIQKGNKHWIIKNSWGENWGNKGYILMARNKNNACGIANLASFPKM
Assay: Determination of cathepsin K proteolytic catalytic activity; inhibition studies (progress curve method)
Assay type: biochemical
Conditions: human recombinant enzyme, fluorogenic substrate Cbz-Phe-Arg-AMC, pH 5.5
Experimental: Determination of cathepsin K proteolytic catalytic activity
All assays for cathepsin K were carried out with human recombinant enzyme. Standard assay conditions for the determination of kinetic constants used a fluorogenic peptide substrate, typically Cbz-Phe-Arg-AMC, and were determined in 100 mM Na acetate at pH 5.5 containing 20 mM cysteine and 5 mM EDTA. Stock substrate solutions were prepared at concentrations of 10 or 20 mM in DMSO with 20 uM final substrate concentration in the assays. All assays contained 10% DMSO. […] All assays were conducted at ambient temperature. Product fluorescence (excitation at 360 nm; emission at 460 nm) was monitored with a Perceptive Biosystems Cytofluor II fluorescent plate reader. […]
Potential inhibitors were evaluated using the progress curve method. […] For those compounds whose progress curves were linear, apparent inhibition constants (Ki,app) were calculated according to equation 1 (Brandt et al., Biochemitsry, 1989, 28, 140): […]
[AMC]=νSSt+(ν0−νSS) [I−exp(−kobst)]/kobs (2) where [AMC] is the concentration of product formed over time t, ν0 is the initial reaction velocity and νSS is the final steady state rate. Values for kobs were then analyzed as a linear function of inhibitor concentration to generate an apparent second order rate constant (kobs/inhibitor concentration or kobs/[1]) describing the time-dependent inhibition. […]

With `CC(C)C[C@H](NS(=O)(=O)c1cccc2cccnc12)C(=O)NC1COCC1=O` (mixture of isomers) [4-(R,S)-Amino-N-[(8-quinolinesulfonyl)-S-leucine]-3-tetrahydrofuran-3-one] the Ki was greater than 10 µM.
